± gives the expanded uncertainty stated by the source.
Experiment: xn = mol fraction of the nth substance listed
Conditions: Liquid, Vibrating tube method, x1 = 1

Cc1ccccc1 [toluene] + CCC(=O)c1ccccc1
mass density [kg/m3]
Conditions | 298.15 K | 308.15 K | 318.15 K | 328.15 K
100 kPa | 862.1 ± 0.26 | 853 ± 0.27 | 843.8 ± 0.29 | 834.5 ± 0.3
2130 kPa | 863.6 ± 0.27 | 854.5 ± 0.27 | 845.6 ± 0.28 | 836.5 ± 0.29
4150 kPa | 865.2 ± 0.27 | 856.2 ± 0.28 | 847.3 ± 0.29 | 838.3 ± 0.29
6180 kPa | 866.7 ± 0.27 | 857.8 ± 0.28 | 849 ± 0.29 | 840.1 ± 0.29
8210 kPa | 868.2 ± 0.27 | 859.3 ± 0.28 | 850.6 ± 0.29 | 841.8 ± 0.3
10230 kPa | 869.6 ± 0.28 | 860.9 ± 0.29 | 852.3 ± 0.29 | 843.5 ± 0.3
11250 kPa | 870.4 ± 0.28 | 861.7 ± 0.29 | 853.1 ± 0.29 | 844.4 ± 0.3
12260 kPa | 871.1 ± 0.28 | 862.4 ± 0.29 | 853.9 ± 0.29 | 845.2 ± 0.3
14290 kPa | 872.5 ± 0.28 | 863.9 ± 0.29 | 855.4 ± 0.3 | 846.9 ± 0.31
16310 kPa | 873.9 ± 0.29 | 865.4 ± 0.29 | 857 ± 0.3 | 848.6 ± 0.31
18340 kPa | 875.3 ± 0.29 | 866.8 ± 0.3 | 858.5 ± 0.3 | 850.1 ± 0.31
20370 kPa | 876.7 ± 0.29 | 868.2 ± 0.3 | 860 ± 0.31 | 851.7 ± 0.32
22390 kPa | 878 ± 0.29 | 869.6 ± 0.3 | 861.5 ± 0.31 | 853.3 ± 0.32
24420 kPa | 879.3 ± 0.3 | 871 ± 0.31 | 862.9 ± 0.32 | 854.8 ± 0.33
26450 kPa | 880.6 ± 0.3 | 872.4 ± 0.31 | 864.4 ± 0.32 | 856.3 ± 0.33
28470 kPa | 881.9 ± 0.31 | 873.8 ± 0.32 | 865.8 ± 0.33 | 857.8 ± 0.34
29490 kPa | 882.5 ± 0.31 | 874.4 ± 0.31 | 866.5 ± 0.33 | 858.5 ± 0.34
30500 kPa | 883.2 ± 0.31 | 875 ± 0.32 | 867.2 ± 0.33 | 859.3 ± 0.34
32530 kPa | 884.4 ± 0.31 | 876.3 ± 0.32 | 868.5 ± 0.33 | 860.7 ± 0.34
34550 kPa | 885.6 ± 0.32 | 877.6 ± 0.33 | 869.9 ± 0.34 | 862.1 ± 0.35
36580 kPa | 886.8 ± 0.32 | 878.9 ± 0.33 | 871.2 ± 0.34 | 863.5 ± 0.35
38600 kPa | 888 ± 0.32 | 880.1 ± 0.33 | 872.5 ± 0.35 | 864.9 ± 0.36
39620 kPa | 888.6 ± 0.33 | 880.7 ± 0.35 | 873.2 ± 0.35 | 865.5 ± 0.35
